In general, melting point refers to the temperature, or range, at which the solid turns liquid.

65 molecules from patent publication US6831078B1, “Azetidinecarboxamide derivatives for treating CNS disorders” (Vernalis Research Limited, priority 1998, dated 2004) can be followed below.

Series [1] concerns 3-MPA-Induced Seizures. Put plainly: Antagonism of 3-MPA-induced seizures. The class given is in vivo. The note with it: mg/kg i.v. of 3-MPA required to evoke a seizure response; test drug 30 mg/kg p.o. 60 min before 3-MPA; male T/O mice. As for the experimental part:
Several animal seizure models are available for the screening and characterisation of anticonvulsant (antiepileptic) drugs, Most models employ a chemical convulsant to induce seizures and the anticonvulsant potencies of novel compounds are measured in terms of their ability to increase the dose of convulsant required to induce a seizure response (or to prolong the latency to seizure onset following a bolus dose of the convulsant). Most chemical convulsants work by blocking the neurotran […] function of gamma-aminobutyric acid (GABA), the predominant inhibitory neurotransmitter in the mammalian brain. This can be achieved by blocking the postsynaptic action of GABA using pentylenetetrazol or bicuculline, or via a presynaptic action using a GABA synthesis inhibitor to decrease GABA release into the synapse. […] Male albino […] (obtained from Tuck) weighing 28-40 g were used in these studies. […] Immediately following 3-MPA administration, each mouse was placed individually into a cage for observation. The seizure response of each animal was scored quantally as present or absent (response or non-response) during the 5 min period immediately following 3-MPA administration. A seizure response was defined as the onset of the initial clonic phase of the seizure (abrupt loss of righting reflex accompanied by vocalisation). The seizure threshold (in terms of mg/kg i.v. of 3-MPA required to evoke a seizure response) was determined in each treatment group by a sequential up/down method followed by modified probit analysis of the quantal data. […] In these studies, 3-MPA was obtained from Sigma. […] Drugs were administered in a dose volume of 10 ml/kg body weight.

The structures appear in SMILES notation. Where a name gives a salt, the structure may show the parent alone. Marks after values point to notes of the source that are not given here.

The molecule `C#CCNC(=O)N1CC(c2ccccc2C(F)(F)F)C1` [Example 33] gave a melting point of 101 °C.

`NC(=O)N1CC(c2ccc(F)cc2)C1` [Example 67]: the melting point was in the range of 205 to 208.5 °C. Turning to `C[C@@H](O)CNC(=O)N1CC(c2ccc(F)cc2)C1` [Example 7, (R)-3-(4-Fluorophenyl)-N-(2-hydroxypropyl)azetidine-1-carboxamide], the melting point fell in the range of 104 to 105 °C. The “SC = Seizure threshold after treatment with test drug” value (from here on “SC = Seizure threshold”) in series [1] was 54.4 mg/kg. `C[C@@H](O)CNC(=O)N1CC(c2ccc(F)c(C(F)(F)F)c2)C1` [Example 27] showed a melting point of 69 to 71 °C.

For `CC(C)(O)CNC(=O)N1CC(c2ccc(C(F)(F)F)cc2)C1` [Example 84], the melting point was in the range of 123 to 124 °C. The same measure, in the same setting: next, `C[C@@H](CO)NC(=O)N1CC(c2ccc(F)cc2)C1` [Example 77]: 118 to 120 °C; `O=C(NCCc1ccccn1)N1CC(c2ccc(Cl)cc2)C1` [Example 43]: 125 °C. Consider `C#CCNC(=O)N1CC(c2cccc(C(F)(F)F)c2)C1` [Example 19, 3-(3-(Trifluoromethyl)phenyl)-N-(2-propynyl)azetidine-1-carboxamide], for which, in series [1], the “SC = Seizure threshold” value is listed as >200.0^a mg/kg. Molecule `O=C(NCCO)N1CC(c2ccc(F)cc2)C1` [Example 57] came in with a melting point of 99 to 101 °C. Same read-out and setting: next, `NC(=O)N1CC(c2cc(F)cc(Cl)c2)C1` [Example 69]: 198 to 200.5 °C. In the case of `C[C@@H](O)CNC(=O)N1CC(c2ccc(Cl)cc2)C1` [Example 9, (R)-3-(4-Chlorophenyl)-N-(2-hydroxypropyl)azetidine-1-carboxiamide], the “SC = Seizure threshold” value in series [1] is reported as 29.7 mg/kg. Molecule `C[C@@H](O)CNC(=O)N1CC(c2ccc(F)c(F)c2)C1` [Example 21] yielded a melting point of 108 to 109 °C. As to `O=C(NCCCO)N1CC(c2ccc(F)cc2)C1` [Example 65], the melting point lay within 90 to 93 °C.

`CC(O)CNC(=O)N1CC(c2ccc(Cl)cc2)C1` (stereo not drawn) [Example 71] yielded a melting point of 92.5 to 94 °C.

In the case of `CC(C)(O)CNC(=O)N1CC(c2ccc(F)c(C(F)(F)F)c2)C1` [Example 64], the melting point lay in the range of 110 to 111.5 °C.

In turn, `CCCNC(=O)N1CC(c2ccc(F)cc2)C1` [Example 45] came in with a melting point of 117 to 118.5 °C. Consider `C[C@H](O)CNC(=O)N1CC(c2ccc(F)cc2)C1` [Example 10], for which, in series [1], the “SC = Seizure threshold” value is 95.8 mg/kg.

`C[C@@H](O)CNC(=O)N1CC(c2ccc(F)c(Cl)c2)C1` [Example 23] had a melting point of 83 to 84 °C.

In turn, `CC(C)(O)CNC(=O)N1CC(c2cccc(C(F)(F)F)c2)C1` [Example 56] came in with a melting point of 94.5 to 96 °C. Turning to `C=CCNC(=O)N1CC(c2cccc(F)c2)C1` [Example 54], the melting point lay within 62.5 to 63.5 °C. Consider `C#CCNC(=O)N1CC(c2ccc(F)c(C(F)(F)F)c2)C1` [Example 28], for which the melting point was 119 °C. On to `C#CCNC(=O)N1CC(c2ccc(Cl)c(F)c2)C1` [Example 31], for which the melting point turned out to be 132 °C.

`CC(=O)CNC(=O)N1CC(c2ccc(C(F)(F)F)cc2)C1` [Example 80] had a melting point of 139.5 to 141 °C. On the same count and under the same terms, the value for `C#CCNC(=O)N1CC(c2cccc(Cl)c2)C1` [Example 59] was 90 to 105 °C (dec.). Consider `C=CCNC(=O)N1CC(c2ccc(F)cc2)C1` [Example 5, 3-(4-Fluoropbenyl)-N-(2-propenyl)azetidine-1-carboxamide], for which the “SC = Seizure threshold” value in series [1] came to 32.4 mg/kg. Regarding `C[C@H](CO)NC(=O)N1CC(c2ccc(Cl)cc2)C1` [Example 39], the melting point was in the range of 71 to 75 °C. Still for that read-out and setting: the value for `C[C@H](NC(=O)N1CC(c2ccc(Cl)cc2)C1)[C@H](O)c1ccccc1` [Example 42] was 120 to 122 °C. Take `C=CCNC(=O)N1CC(c2ccc(C(C)(C)C)cc2)C1` [Example 2, 3-(4-tert-Butylphenyl)-N-(2-propenyl)azeddine-1-carboxamide]: in series [1], the “SC = Seizure threshold” value came to 24.2 mg/kg. Regarding `C=CCNC(=O)N1CC(c2cccc(Cl)c2)C1` [Example 53], the melting point was in the range of 65 to 66 °C.

As for `C[C@@H](O)CNC(=O)N1CC(c2cc(F)cc(Cl)c2)C1` [Example 70], the melting point fell in the range of 81 to 82.5 °C. The same measure, in the same setting: the value for `NCC1CCN(C(=O)N2CC(c3ccc(Cl)cc3)C2)CC1` [Example 44] was 137 to 138 °C. Regarding `C=CCNC(=O)N1CC(c2ccc(Cl)cc2)C1` [Example 1], the “SC = Seizure threshold” value in series [1] is 42.7 mg/kg. Molecule `C[C@@H](O)CNC(=O)N1CC(c2ccccc2C(F)(F)F)C1` [Example 32] showed a melting point of 89 °C. Still for that read-out and setting: the value for `C[C@@H](O)CNC(=O)N1CC(c2ccc(C(F)(F)F)cc2F)C1` [Example 58] was 106 to 107 °C; that for `C[C@@H](O)CNC(=O)N1CC(c2ccc3ccccc3c2)C1` [Example 63] was 143 to 144 °C.

Consider `C#CCNC(=O)N1CC(c2cccc(F)c2)C1` [Example 72], for which the melting point lay in the range of 101.5 to 110.25 °C. In the case of `CC(C)(O)CNC(=O)N1CC(c2ccc(F)cc2)C1` [Example 55], the melting point is 77 to 78.5 °C. Still for that read-out and setting: next, `C[C@@H](O)CNC(=O)N1CC(c2ccccc2Cl)C1` [Example 34]: 109 °C.

On to `C[C@H](O)CNC(=O)N1CC(c2ccc(C(F)(F)F)cc2)C1` [Example 15], for which, in series [1], the “SC = Seizure threshold” value came out at 58.4 mg/kg. `C=CCNC(=O)N1CC(c2ccc(C(F)(F)F)cc2)C1` [Example 46] returned a melting point of 136 to 137.5 °C. In the case of `NC(=O)N1CC(c2cccc(C(F)(F)F)c2)C1` [Example 37], the melting point is 198 °C.

`CC(C)(O)CNC(=O)N1CC(c2cc(F)cc(Cl)c2)C1` [Example 68] returned a melting point of 112.5 to 113.5 °C. With `CC(C)(CO)NC(=O)N1CC(c2ccc(Cl)cc2)C1` [Example 41], the melting point was in the range of 134 to 135 °C. In turn, `C#CCNC(=O)N1CC(c2ccc(F)c(Cl)c2)C1` [Example 26] yielded a melting point of 133 °C. On the same count and under the same terms, next, `C#CCNC(=O)N1CC(c2ccc(F)c(F)c2)C1` [Example 25]: 123 °C; `CCC(C)NC(=O)N1CC(c2ccc(F)cc2)C1` (stereo not drawn) [Example 74]: 100 to 102 °C; `CCCNC(=O)N1CC(c2ccc(C(F)(F)F)cc2)C1` [Example 47]: 127 to 128.5 °C.

`C#CCNC(=O)N1CC(c2cc(F)cc(Cl)c2)C1` [Example 61] returned a melting point of 108.5 to 110 °C.

With `C=CCNC(=O)N1CC(c2cccc(C(F)(F)F)c2)C1` [Example 52], the melting point is 64 to 66 °C. `C[C@H](CO)NC(=O)N1CC(c2ccc(Cl)cc2)C1` [Example 40]: the melting point is 82 to 85 °C. Still for that read-out and setting: the value for `C[C@H](O)CNC(=O)N1CC(c2cccc(F)c2)C1` [Example 48] was 79.5 to 80 °C; that for `CC[C@@H](O)CNC(=O)N1CC(c2ccc(F)cc2)C1` (hydrate or solvate) [Example 75] was 77 to 79 °C; that for `C[C@@H](O)CNC(=O)N1CC(c2ccc(F)cc2F)C1` [Example 36] was 88 to 89 °C. On the same count and under the same terms, the value for `C[C@@H](O)CNC(=O)N1CC(c2cccc(F)c2)C1` [Example 83] was 77.5 to 79 °C. For the molecule `O=C(NC[C@H](O)CO)N1CC(c2ccc(Cl)cc2)C1` [Example 78], the melting point is 90 to 92 °C. In the case of `C[C@H](O)CNC(=O)N1CC(c2cc(Cl)cc(Cl)c2)C1` [Example 49], the melting point was in the range of 110 to 111 °C. The same measure, in the same setting: the value for `C[C@@H](O)CNC(=O)N1CC(c2cccc(Cl)c2Cl)C1` [Example 35] was 111 °C; that for `CC(C)(N)CNC(=O)N1CC(c2ccc(Cl)cc2)C1` (as salt: HCl) [Example 79] was 183 to 184 °C. On to `C[C@@H](O)CNC(=O)N1CC(c2ccc(C(C)(C)C)cc2)C1` [Example 4, (R)-3-(4-tert-Butylphenyl)-N-(2-hydroxypropyl)azetidine-1-carboxamide], for which the “SC = Seizure threshold” value in series [1] is recorded as 27.3 mg/kg. On to `CC(C)(O)CNC(=O)N1CC(c2ccc(Cl)cc2)C1` [Example 66], for which the melting point is 114 to 115.5 °C. On the same count and under the same terms, the value for `COCC(C)NC(=O)N1CC(c2ccc(Cl)cc2)C1` (stereo not drawn) [Example 38] was 110 °C; that for `CC(C)(O)CNC(=O)N1CC(c2cccc(Cl)c2)C1` [Example 29] was 102 °C. On to `C#CCNC(=O)N1CC(c2ccc(Cl)cc2)C1` [Example 8, (3-(4-Chlorophenyl)-N-2-propynyl)azetidine-1-carboxamide], for which the “SC = Seizure threshold” value in series [1] stood at 100 mg/kg. In turn, `O=C(N[C@@H]1CCCC[C@H]1O)N1CC(c2ccc(F)cc2)C1` [Example 76] gave a melting point of 141 to 142.5 °C. Still for that read-out and setting: the value for `C[C@H](O)CNC(=O)N1CC(c2cccc(Cl)c2)C1` [Example 51] was 78 to 80 °C.
